These results are taken from US10870647B2, “Imidazopyridine derivative, method for preparing same, and pharmaceutical composition containing same as active ingredient for preventing or treating cancer” (DAEGU-GYEONGBUK MEDICAL INNOVATION FOUNDATION, priority 2016, dated 2020).

Common to all, as to type: cell-based
For one test, the system named is FYN (MCP-1). Kind of test: Cancer cell proliferation inhibition, MTS assay, 72 hours. In a few lines:
(§1)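 Cells seeded at 3,000/well were cultured 24 h, then exposed 72 h to serially diluted compound from 50 μM top (0.05% DMSO). Viability was read by MTS/PMS at OD450 after 2 h at 37°C. IC50 was taken as 50% proliferation inhibition versus solvent control, from three data sets.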

The test system of the next test is Huh7. The description is as above. The settings on record: Homo sapiens, Huh-7. In a few lines:
as §1

The next test relates to RET (LC2/ad-CDC6). Described as above. In short, it runs like this:
as §1

The next test has as its system SK-MEL-28. The test is described as above. Conditions: Homo sapiens. In a few lines: as §1
Another test has as its system MDA-MB-231. Kind of test: Real time cell proliferation, IncuCyte ZOOM, 72 hours. The settings on record: Homo sapiens, MDA-MB-231, 72 h.
The subject of the next test is M-NFS-60. Description: Cancer cell proliferation inhibition, CCK-8, 72 hours. In short, it runs like this:
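Cells were grown in RPMI with 10% FBS, 0.05 mM 2-mercaptoethanol and human M-CSF, and seeded at 20000 cells/well. Compounds were added from a 3-fold DMSO dilution series topping at 1968 nM (dilution-plate concentration; 11 points including DMSO control). After 72 h at 37 °C, CCK-8 was added for 2 h and OD450 read.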

Another test concerns the target T1, T315I (Ba/F3) (Homo sapiens, UniProt P00519, T315I, cells depend on it).
T1 construct: fused on or other part: P11274 (Breakpoint cluster region protein)
The description is as above. Conditions: read-out: T315I (Ba/F3) IC50. In a few lines: (§2)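 A375 cells (2×10^3/well) attached overnight, then received 9 three-fold dilutions (0.0015-10 μM). K562 and Ba/F3-T315I (1×10^4/well) were given 9-point series (3-fold and 5-fold respectively), final 0-10 μM. After 72 h at 37°C, CCK-8 was added for 2 h; blank-subtracted OD450 gave IC50.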

Another test has as its system A375. The description is as above. In short, it runs like this: as §2
For the next test, the system named is K562. Described as above. In short, it runs like this:
as §2

pIC50: −log10 of the molar value. Where two headings read alike, the source gives them in different places. Some results are limits rather than exact numbers.

By pIC50 is commonly meant the IC50 on a negative log10 scale, so that one unit is a factor of ten. A lower pIC50 goes with a large IC50. `Cc1ccc(Nc2cccn3c(C#Cc4cc(C(=O)Nc5ccc(CN6CCN(C)CC6)c(C(F)(F)F)c5)ccc4C)cnc23)nc1` [Example 20, 4-methyl-N-(4-((4-methylpiperazin-1-yl)methyl)-3-(trifluoromethyl)phenyl)-3-((8-((5-methylpyridin-2-yl)amino)imidazo[1,2-a]pyridin-3-yl)ethynyl)benzamide]: the pIC50 in the test on FYN (MCP-1) was 5.88; with Huh7, 5.76; with RET (LC2/ad-CDC6) (72 h), more than 7.00; with SK-MEL-28, 5.84; with MDA-MB-231 it was 5.81; with M-NFS-60, 5.98. Also, the pIC50 in the test with A375 (Homo sapiens, A-375, 72 h) was 5.47; in the test on K562 (Homo sapiens, K562, 72 h) it was 7.85. The GI50 at T315I (Ba/F3) was found to be 234 nM.

As for `CCN1CCN(Cc2ccc(NC(=O)c3ccc(C)c(C#Cc4cnc5c(Nc6cnn(CC)c6)cccn45)c3)cc2C(F)(F)F)CC1` [Example 23, 3-((8-((1-ethyl-1H-pyrazol-4-yl)amino)imidazo[1,2-a]pyridin-3-yl)ethynyl)-N-(4-((4-ethylpiperazin-1-yl)methyl)-3-(trifluoromethyl)phenyl)-4-methylbenzamide], the negative logarithm of the IC50 (pIC50) in the test with FYN (MCP-1) is 6.57; with Huh7, 7.13; in the test on RET (LC2/ad-CDC6) (72 h) it was more than 8.00; with SK-MEL-28, 6.04; with MDA-MB-231 it was 6.47; in the test on A375 (Homo sapiens, A-375, 72 h), 6.85. The same molecule gave a pIC50 in the test on K562 (Homo sapiens, K562, 72 h) of more than 9.00. Moreover, the GI50 on T315I (Ba/F3) amounted to 39 nM.

For `Cc1ccc(C(=O)Nc2ccc(CN3CCN(C)[C@H](C)C3)c(C(F)(F)F)c2)cc1C#Cc1cnc2c(Nc3cnn(C(C)C)c3)cccn12` [Example 29, (R)—N-(4-((3,4-dimethylpiperazin-1-yl)methyl)-3-(trifluoromethyl)phenyl)-3-((8-((1-isopropyl-1H-pyrazol-4-yl)amino)imidazo[1,2-a]pyridin-3-yl)ethynyl)-4-methylbenzamide], the negative-log IC50 (pIC50) is 5.50 with FYN (MCP-1); 7.52 in the test with Huh7; more than 7.00 in the test with RET (LC2/ad-CDC6); 6.14 with SK-MEL-28; 6.02 in the test on MDA-MB-231; 6.53 in the test with A375. In the test on K562, this molecule had a pIC50 of 8.30. The GI50 at T315I (Ba/F3) amounted to 102 nM.

With `Cc1ccc(C(=O)Nc2ccc(CN3CCN(C)[C@H](C)C3)c(C(F)(F)F)c2)cc1C#Cc1cnc2c(Nc3cnn(C)c3)cccn12` [Example 31, (R)—N-(4-((3,4-dimethylpiperazin-1-yl)methyl)-3-(trifluoromethyl)phenyl)-4-methyl-3-((8-((1-methyl-1H-pyrazol-4-yl)amino)imidazo[1,2-a]pyridin-3-yl)ethynyl)benzamide], the pIC50 in the test with FYN (MCP-1) was 6.11; in the test with Huh7 it was 7.19; with SK-MEL-28 it was 6.32; in the test on MDA-MB-231, 6.67; with M-NFS-60, 7.20; in the test on A375 (Homo sapiens, A-375, 72 h) it was 6.82. The molecule further had a negative-log IC50 (pIC50) in the test on K562 (Homo sapiens, K562, 72 h) of more than 9.00. The GI50 at T315I (Ba/F3) worked out at 54.2 nM.

For the molecule `Cc1ccc(C(=O)Nc2ccc(CN3CCC(N(C)C)C3)c(C(F)(F)F)c2)cc1C#Cc1cnc2c(Nc3cnn(C)c3)cccn12` (centres unmarked) [Example 32, N-(4-((3-(dimethylamino)pyrrolidin-1-yl)methyl)-3-(trifluoromethyl)phenyl)-4-methyl-3-((8-((1-methyl-1H-pyrazol-4-yl)amino)imidazo[1,2-a]pyridin-3-yl)ethynyl)benzamide], the negative-log IC50 (pIC50) in the test on FYN (MCP-1) was 6.05; in the test with Huh7 it was 6.97; in the test with SK-MEL-28, 5.94; with MDA-MB-231, 6.34; in the test on M-NFS-60, 7.19; with A375 (Homo sapiens, A-375, 72 h), 6.39. Also, in the test on K562 (Homo sapiens, K562, 72 h), the negative logarithm of the IC50 (pIC50) was more than 9.00. For the same molecule, the GI50 at T315I (Ba/F3) stood at 60.4 nM.
